According to article PMC12627862, “Therapeutic targeting of endothelial calcium signaling accelerates the resolution of lung injury” (Signal Transduction and Targeted Therapy, 2025):
Starred links: 1 amine or outer side, 2 acyl side, 3 side chain; linkers in the order of their positions; H or OH if unused. Non-standard residues stand in square brackets, D forms with d. Residues, ends and D or L forms follow the SMILES beside them. ξ: configuration not given here. Oic = O=C(O)[C@@H]1C[C@@H]2CCCC[C@@H]2N1; GABOB(3R) = O=C(C[C@@H](O)CN[*:1])[*:2]; tBuAla = CC(C)(C)C[C@H](N)C(=O)O; ξVal(3-OH) = CC(C)(O)C(N)C(=O)O; 4Amb = NCc1ccc(C(=O)O)cc1

Key:
Crl:CD (SD) rats = experiment: Non-GLP dose-escalation (MTD) study in rats; assay type: in vivo, rat; design: key to Clinical Signs / Body Weights / Clinical Chemistry / Hematology / Coagulation: NE = no effect; DA = decreased activity; LB = labored breathing; P = piloerection; HP = hunched posture; settings: for ALT / APTT / AST / Albumin / Alkaline Phosphatase / Blood Urea Nitrogen / Calcium / Chloride / Cholesterol / Creatinine / Fibrinogen / Globulin / Glucose / Phosphorus / Potassium / Prothrombin Time / Sodium / Total Bilirubin / Total Protein: male rats, day 2, mean, N=3; for Body Weights / Clinical Chemistry / Clinical Signs / Coagulation / Hematology: rats, n=3
in vitro [1] = settings: rat, plasma
Protocol: (§1) Stability assay of peptides in blood plasma of rodents, dogs, and humans. For the plasma stability assay, 5 μM of each peptide was incubated with species-specific plasma for 120 minutes and samples were taken at the required time points. Positive control used were molecules with known stability: enalapril, propantheline, and warfarin. The amount of test compound remaining at each time point was analyzed by LC-MS/MS. Appropriate control compounds for each species were also incubated.

in vitro [2] = settings: mouse, plasma
Protocol: as §1

in vitro [3] = settings: human, plasma
Protocol: as §1

in vivo = settings: male, Crl:CD (SD), rat, iv, 5 mg/kg
Protocol: Blood samples were collected at predefined time points (2, 10, 30, 60, 90 minutes, and 2, 4, 6, 8, and 24 hours post-dosing) from subgroups of rats, ensuring each animal contributed a limited number of samples to minimize stress. Plasma was separated by centrifugation and stored at -80 °C until analysis. Lungs were collected at selected time points (0.5, 2, 8, and 24 hours) for drug quantification. […] Pharmacokinetic parameters, including Cmax, Tmax, AUC, half-life, clearance, and volume of distribution, were calculated using Phoenix WinNonlin software.

CC(C)(C)C[C@@H]1NC(=O)C[C@@H](O)CNC(=O)[C@@H]2C[C@@H]3CCCC[C@@H]3N2C(=O)[C@H](CC(C)(C)C)NC(=O)c2ccc(cc2)CNC(=O)C(C(C)(C)O)NC(=O)[C@@H](Cc2ccccc2)NC1=O (stereo partly drawn) [compound 109, (1^2S,1^3aS,1^7aS,3S,10S,13R,16S,20R)-13-benzyl-20-hydroxy-10-(2-hydroxypropan-2-yl)-3,16-dineopentyl-1^2,1^3,1^3a,1^4,1^5,1^6,1^7,1^7a-octahydro-1^1H-4,8,11,14,17,22-hexaaza-1(1,2)-indola-6(1,4)-benzenacyclotricosaphane-2,5,9,12,15,18,23-heptaone.] (cyclo([4Amb][tBuAla][Oic][GABOB(3R)][tBuAla][dF][ξVal(3-OH)]))
MTD, equivalent in humans (Crl:CD (SD) rats; human equivalent): ~ 2.43 mg/kg | LOAEL, HED (Crl:CD (SD) rats; human equivalent dose): ~ 1.62 mg/kg | NOAEL, HED (Crl:CD (SD) rats; human equivalent dose): ~ 0.81 mg/kg | lowest observed adverse effect level (LOAEL) (Crl:CD (SD) rats; male Crl:CD (SD) rats, single IV bolus): 10 mg/kg | ALT (Crl:CD (SD) rats; 5 mg/kg): 52.7 U/L | APTT (Crl:CD (SD) rats; 5 mg/kg): 17.933 d¹ Seconds | AST (Crl:CD (SD) rats; 5 mg/kg): 71.3 U/L | Albumin (Crl:CD (SD) rats; 5 mg/kg): 3.0400 g/dL | Alkaline Phosphatase (Crl:CD (SD) rats; 5 mg/kg): 381.7 U/L | Blood Urea Nitrogen (Crl:CD (SD) rats; 5 mg/kg): 13.0 mg/dL | Calcium (Crl:CD (SD) rats; 5 mg/kg): 11.320 mg/dL | Chloride (Crl:CD (SD) rats; 5 mg/kg): 98.3 mmol/L | Cholesterol (Crl:CD (SD) rats; 5 mg/kg): 86.0 5.6 3 mg/dL | Creatinine (Crl:CD (SD) rats; 5 mg/kg): 0.3139 mg/dL | Fibrinogen (Crl:CD (SD) rats; 5 mg/kg): 403.0 mg/dL | Globulin (Crl:CD (SD) rats; 5 mg/kg): 2.239 g/dL | Glucose (Crl:CD (SD) rats; 5 mg/kg): 161.3 mg/dL | Phosphorus (Crl:CD (SD) rats; 5 mg/kg): 9.10 0.44 3 mg/dL | Potassium (Crl:CD (SD) rats; 5 mg/kg): 5.93 d² mmol/L | Prothrombin Time (Crl:CD (SD) rats; 5 mg/kg): 11.77 s | Sodium (Crl:CD (SD) rats; 5 mg/kg): 141.3 mmol/L | Total Bilirubin (Crl:CD (SD) rats; 5 mg/kg): 0.127 mg/dL | Total Protein (Crl:CD (SD) rats; 5 mg/kg): 5.279 g/dL | ALT (Crl:CD (SD) rats; 10 mg/kg): 52.0 U/L | APTT (Crl:CD (SD) rats; 10 mg/kg): 17.800 d¹ Seconds | AST (Crl:CD (SD) rats; 10 mg/kg): 68.3 U/L | Albumin (Crl:CD (SD) rats; 10 mg/kg): 3.2720 0.1274 3 g/dL | Alkaline Phosphatase (Crl:CD (SD) rats; 10 mg/kg): 323.0 U/L | Blood Urea Nitrogen (Crl:CD (SD) rats; 10 mg/kg): 18.7 mg/dL | Calcium (Crl:CD (SD) rats; 10 mg/kg): 11.767 mg/dL | Chloride (Crl:CD (SD) rats; 10 mg/kg): 99.0 mmol/L | Cholesterol (Crl:CD (SD) rats; 10 mg/kg): 88.7 2.3 3 mg/dL | Creatinine (Crl:CD (SD) rats; 10 mg/kg): 0.318 mg/dL | Fibrinogen (Crl:CD (SD) rats; 10 mg/kg): 453.3 mg/dL | Globulin (Crl:CD (SD) rats; 10 mg/kg): 2.523 0.078 3 g/dL | Glucose (Crl:CD (SD) rats; 10 mg/kg): 126.7 10.5 3 mg/dL | Phosphorus (Crl:CD (SD) rats; 10 mg/kg): 9.67 0.45 3 mg/dL | Potassium (Crl:CD (SD) rats; 10 mg/kg): 5.77 mmol/L | Prothrombin Time (Crl:CD (SD) rats; 10 mg/kg): 12.27 d¹ Seconds | Sodium (Crl:CD (SD) rats; 10 mg/kg): 144.0 mmol/L | Total Bilirubin (Crl:CD (SD) rats; 10 mg/kg): 0.127 mg/dL | Total Protein (Crl:CD (SD) rats; 10 mg/kg): 5.795 0.203 3 g/dL | ALT (Crl:CD (SD) rats; 15 mg/kg): 52.7 U/L | APTT (Crl:CD (SD) rats; 15 mg/kg): 16.867 s | AST (Crl:CD (SD) rats; 15 mg/kg): 69.7 U/L | Albumin (Crl:CD (SD) rats; 15 mg/kg): 3.1030 d² 0.0465 3 g/dL | Alkaline Phosphatase (Crl:CD (SD) rats; 15 mg/kg): 286.0 U/L | Blood Urea Nitrogen (Crl:CD (SD) rats; 15 mg/kg): 15.7 d² mg/dL | Calcium (Crl:CD (SD) rats; 15 mg/kg): 11.590 mg/dL | Chloride (Crl:CD (SD) rats; 15 mg/kg): 97.0 d² mmol/L | Cholesterol (Crl:CD (SD) rats; 15 mg/kg): 91.0 6.1 3 mg/dL | Creatinine (Crl:CD (SD) rats; 15 mg/kg): 0.352 mg/dL | Fibrinogen (Crl:CD (SD) rats; 15 mg/kg): 438.3 mg/dL | Globulin (Crl:CD (SD) rats; 15 mg/kg): 2.488 0.021 3 g/dL | Glucose (Crl:CD (SD) rats; 15 mg/kg): 142.3 d² 1.2 3 mg/dL | Phosphorus (Crl:CD (SD) rats; 15 mg/kg): 9.00 0.26 3 mg/dL | Potassium (Crl:CD (SD) rats; 15 mg/kg): 5.47 mmol/L | Prothrombin Time (Crl:CD (SD) rats; 15 mg/kg): 11.67 s | Sodium (Crl:CD (SD) rats; 15 mg/kg): 142.0 mmol/L | Total Bilirubin (Crl:CD (SD) rats; 15 mg/kg): 0.140 mg/dL | Total Protein (Crl:CD (SD) rats; 15 mg/kg): 5.591 d² 0.067 3 g/dL | Body Weights (Crl:CD (SD) rats; single IV bolus 5 mg/kg): NE | Clinical Chemistry (Crl:CD (SD) rats; single IV bolus 5 mg/kg): NE | Clinical Signs (Crl:CD (SD) rats; single IV bolus 5 mg/kg): DA | Coagulation (Crl:CD (SD) rats; single IV bolus 5 mg/kg): NE | Hematology (Crl:CD (SD) rats; single IV bolus 5 mg/kg): NE | Body Weights (Crl:CD (SD) rats; single IV bolus 10 mg/kg): NE | Clinical Chemistry (Crl:CD (SD) rats; single IV bolus 10 mg/kg): ↑BUN | Clinical Signs (Crl:CD (SD) rats; single IV bolus 10 mg/kg): DA, LB | Coagulation (Crl:CD (SD) rats; single IV bolus 10 mg/kg): NE | Hematology (Crl:CD (SD) rats; single IV bolus 10 mg/kg): ↓%Reticulocytes | Body Weights (Crl:CD (SD) rats; single IV bolus 15 mg/kg): NE | Clinical Chemistry (Crl:CD (SD) rats; single IV bolus 15 mg/kg): ↑BUN ↑Creatinine | Clinical Signs (Crl:CD (SD) rats; single IV bolus 15 mg/kg): DA, LB, P, HP | Coagulation (Crl:CD (SD) rats; single IV bolus 15 mg/kg): NE | Hematology (Crl:CD (SD) rats; single IV bolus 15 mg/kg): ↓Platelet Count ↓%Reticulocytes ↑Mean Platelet Volume | lung gross histopathology (Crl:CD (SD) rats; single IV bolus 15 mg/kg): intra-alveolar hemorrhage and pigment deposition | half-life at 5 μM (in vitro [1]): 4.88 h | remaining at 2 h, 5 μM (in vitro [1]): 76.5% | half-life at 5 μM (in vitro [2]): > 8 h | remaining at 2 h, 5 μM (in vitro [2]): 89.8% | half-life at 5 μM (in vitro [3]): > 8 h | remaining at 2 h, 5 μM (in vitro [3]): 101% | level at 0.167 h (in vivo): 23700 ng/mL | level at 0.5 h (in vivo): 2550 ng/mL | level at 1 h (in vivo): 580 ng/mL | level at 1.5 h (in vivo): 399 ng/mL | level at 2 h (in vivo): 252 ng/mL | level at 4 h (in vivo): 127 ng/mL | level at 6 h (in vivo): 66.3 ng/mL | level at 8 h (in vivo): 42.7 ng/mL | level at 24 h (in vivo): 5.9 ng/mL
